According to ChEMBL document CHEMBL3632462, “Synthesis and evaluation of phenoxymethylbenzamide analogues as anti-trypanosomal agents” (Medchemcomm, 2015):

How the values were obtained:
[1] = Selectivity index, ratio of IC50 for rat L6 cells to IC50 for bloodstream form of Trypanosoma brucei rhodesiense STIB900; type: toxicity, cell-based; conditions: read-out: Ratio IC50
[2] = system: Trypanosoma brucei rhodesiense; test: Antitrypanosomal activity against bloodstream form of Trypanosoma brucei rhodesiense STIB900 assessed as growth inhibition after 70 hrs by resazurin dye-based fluorometric analysis; type: functional, organism-based; conditions: STIB900, 70 h
Trypanosoma cruzi = test: Antitrypanosomal activity against […] of Trypanosoma cruzi Tulahuen C2C4 infected in rat L6 cells assessed as growth inhibition after 96 hrs by beta-galactosidase reporter gene assay; type: functional, organism-based; conditions: Tulahuen C2C4, L6, 96 h
Plasmodium falciparum = test: Antiparasitic activity against erythrocytic stage of Plasmodium falciparum NF54 assessed as growth inhibition after 48 hrs by [3H]-hypoxanthine incorporation assay; type: functional, organism-based
L6 = test: Cytotoxicity against rat L6 cells after 70 hrs by resazurin dye-based fluorometric analysis; type: cell-based; conditions: L6, 70 h
[3] = Selectivity index, ratio of IC50 for HEK293 cells to IC50 for Trypanosoma brucei brucei infected in HEK293 cells; type: toxicity, cell-based; conditions: human, read-out: Ratio IC50
Leishmania donovani = test: Antiparasitic activity against amastigote form of Leishmania donovani MHOM/ET/67/L82 assessed as growth inhibition after 70 hrs by resazurin dye-based fluorometric analysis; type: functional, organism-based; conditions: MHOM/ET/67/L82, 70 h
[4] = system: Trypanosoma brucei brucei; test: Antitrypanosomal activity against Trypanosoma brucei brucei infected in HEK293 cells assessed as growth inhibition after 72 hrs by Alamar Blue assay; type: functional, organism-based; conditions: HEK293, 72 h

| Compound | IC50 [4] [µM] | selectivity ratio [3] | other results |
| --- | --- | --- | --- |
| CCCc1ccc(OCc2ccc(C(=O)N3CCCCC3C)cc2)cc1 (stereo not given) | 10 | 8 |  |
| CCOc1ccc(NCc2ccc(C(=O)N3CCCCC3)cc2)cc1 | 2.9 | 29 |  |
| CCOc1ccc(NCc2ccc(C(=O)N3CCOCC3)cc2)cc1 | 20.6 | 4 |  |
| COc1ccc(OCc2ccc(C(=O)N(C)c3ccccc3)cc2)cc1 | 18 | 5 |  |
| CCOc1ccc(OCc2ccc(C(=O)NC(C)C)cc2)cc1 | > 50 |  |  |
| CCOc1ccc(OCCCCCC(=O)N2CCCCC2)cc1 | 7.35 | 5 |  |
| CCOc1ccc(OCCCCCC(=O)N2CCCCC2C)cc1 (stereo not given) | 1.66 | 50 |  |
| CCOc1ccc(OCCCCCC(=O)N(C(C)C)C(C)C)cc1 | 2.03 | 41 |  |
| O=C(Cn1ccnc1[N+](=O)[O-])NCc1ccccc1 [BENZNIDAZOLE] |  |  | IC50 (Trypanosoma cruzi): 2.33 µM |
| CCCCCCCCCCCCCCCCOP(=O)([O-])OCC[N+](C)(C)C [MILTEFOSINE] |  |  | IC50 (Leishmania donovani): 0.572 µM |

The next lines start with results.

| IC50 [4] [µM] | Compound | selectivity ratio [3] | other results |
| --- | --- | --- | --- |
| 1.15 | CCOc1ccc(OCc2ccc(C(=O)N3CCCC(C)C3)cc2)cc1 (stereo not given) | 36 | selectivity ratio [1]: 190; IC50 [2]: 0.985 µM; IC50 (Trypanosoma cruzi): 107 µM; IC50 (Plasmodium falciparum): 22.3 µM; IC50 (L6): 186 µM; IC50 (Leishmania donovani): 35.7 µM |
| 4.2 | CCOc1ccc(OCc2ccc(C(=O)N3CCOCC3)cc2)cc1 | 20 |  |
| > 50 | CCOc1ccc(OCc2ccc(C(=O)O)cc2)cc1 |  |  |
| > 50 | CCCc1ccc(OCc2ccc(C(=O)N3CCCC(C)C3)cc2)cc1 (stereo not given) |  |  |
| 9.2 | Cc1ccc(OCc2ccc(C(=O)N3CCCCC3C)cc2)cc1 (stereo not given) | 9 |  |
| > 50 | Cc1ccc(OCc2ccc(C(=O)N3CCC(C)CC3)cc2)cc1 |  |  |
| > 50 | CCc1ccc(OCc2ccc(C(=O)N3CCC(C)CC3)cc2)cc1 |  |  |
| > 50 | COc1ccc(OCc2ccc(C(=O)N3CCC(C)CC3)cc2)cc1 |  |  |
| > 50 | CCOc1ccc(OCc2ccc(C(=O)N3CCC(C)CC3)cc2)cc1 |  |  |
| 14.8 | CCc1ccc(OCc2ccc(C(=O)N3CCOCC3)cc2)cc1 | 6 |  |
| > 50 | CCc1ccc(OCc2ccc(C(=O)N3CCN(C)CC3)cc2)cc1 |  |  |
| > 50 | COc1ccc(OCc2ccc(C(=O)N3CCN(C)CC3)cc2)cc1 |  |  |
| > 50 | CCOc1ccc(OCc2ccc(C(=O)N3CCN(C)CC3)cc2)cc1 |  |  |
